Here are results for 11 compounds from US20250129052A1, “PYRAZINE COMPOUNDS FOR THE CONTROL OF INVERTEBRATE PESTS” (priority 2021, published 2025).

Each structure is given as a SMILES string. A value given as a limit tells only on which side of the number the result lay.

Holding throughout (format): in vivo
Data set [1] has as its system Southern Armyworm (Spodoptera eridania), 2nd Instar Larvae. The data set can be described thus: B.4 Southern armyworm, 2nd instar larvae, sprayed lima bean plants. Conditions: 96 h, 4 days after treatment, foliar spray, read-out: mortality in comparison with untreated controls. As for the experimental part:
B.4. Southern Armyworm (Spodoptera eridania), 2nd Instar Larvae
The active compounds were formulated by a Tecan liquid handler in 100% cyclohexanone as a 10,000-ppm solution supplied in tubes. The 10,000-ppm solution was serially diluted in 100% cyclohexanone to make interim solutions. These served as stock solutions for which final dilutions were made by the Tecan in 50% acetone:50% water (v/v) into 10 or 20 ml glass vials. A non-ionic surfactant (Kinetic@) was included in the solution at a volume of 0.01% (v/v). The vials were then inserted into an automated electrostatic sprayer equipped with an atomizing nozzle for application to plants/insects. Lima bean plants (variety Sieva) were grown 2 plants to a pot and selected for treatment at the 1st true leaf stage. Test solutions were sprayed onto the foliage by an automated electrostatic plant sprayer equipped with an atomizing spray nozzle. The plants were dried in the sprayer fume hood and then removed from the sprayer. Each pot was placed into perforated plastic bags with a zip closure. Ten to 11 armyworm larvae were placed into the bag and the bags zipped closed. Test plants were maintained in a growth room at about 25° C. and about 20-40% relative humidity for 4 days, avoiding direct exposure to fluorescent light (14:10 light:dark photoperiod) to prevent trapping of heat inside the bags. Mortality and reduced feeding were assessed 4 days after treatment, compared to untreated control plants.

Data set [2] deals with boll weevil (Anthonomus grandis). The data set can be described thus: B.3 Boll weevil, insect diet with eggs in microtiter plates. As to conditions: for mortality at 2500 ppm: 120 h, read-out: mortality in comparison with untreated controls; for mortality at 7.9 ppm: read-out: % mortality in comparison to untreated controls, B.3. On the procedure: B.3 Boll Weevil (Anthonomus grandis)
For evaluating control of boll weevil (Anthonomus grandis), the test unit consisted of 96-well-microtiter plates containing an insect diet and 5-10 A. grandis eggs.
The compounds were formulated using a solution containing 75% v/v water and 25% v/v DMSO. Different concentrations of formulated compounds were sprayed onto the insect diet at 5 μl, using a custom-built micro atomizer, at two replications.
After application, microtiter plates were incubated at about 25±1° C. and about 75±5% relative humidity for 5 days. Egg and larval mortality was then visually assessed.

The test system of data set [3] is tobacco budworm (Heliothis virescens). Nature of the data set: B.2 Tobacco budworm, insect diet with eggs in microtiter plates. Conditions: 120 h, 5 days, egg and larval mortality, read-out: mortality in comparison with untreated controls. As for the experimental part:
B.2 Tobacco Budworm (Heliothis virescens)
For evaluating control of tobacco budworm (Heliothis virescens), the test unit consisted of 96-well-microtiter plates containing an insect diet and 15-25 H. virescens eggs.
The compounds were formulated using a solution containing 75% v/v water and 25% v/v DMSO. Different concentrations of formulated compounds were sprayed onto the insect diet at 10 μl, using a custom-built micro atomizer, at two replications.
After application, microtiter plates were incubated at about 28±1° C. and about 80±5% relative humidity for 5 days. Egg and larval mortality was then visually assessed.

In data set [4] the test system is green peach aphid (Myzus persicae). The data set can be described thus: B.1 Green peach aphid, systemic, artificial diet in microtiter plates. As to conditions: for mortality at 2500 ppm: 72 h, 3 days, aphid diet, read-out: mortality in comparison with untreated controls; for mortality at 9.9 ppm / mortality at 7.9 ppm: read-out: % mortality in comparison to untreated controls, B.1. An excerpt:
B.1 Green Peach Aphid (Myzus persicae)
For evaluating control of green peach aphid (Myzus persicae) through systemic means, the test unit consisted of 96-well-microtiter plates containing liquid artificial diet under an artificial mem brane.
The compounds were formulated using a solution containing 75% v/v water and 25% v/v DMSO. Different concentrations of formulated compounds were pipetted into the aphid diet, using a custom built pipetter, at two replications.
After application, 5-8 adult aphids were placed on the artificial membrane inside the microtiter plate wells. The aphids were then allowed to suck on the treated aphid diet and incubated at about 23±1° C. and about 50±5% relative humidity for 3 days. Aphid mortality and fecundity was then visually assessed.

In data set [5] the test system is yellow fever mosquito (Aedes aegypti). The data set can be described thus: whole plant or invertebrate. As to conditions: 48 h, 2 days, larval mortality, read-out: mortality in comparison with untreated controls. As for the experimental part: B.5 Yellow Fever Mosquito (Aedes aegypti)
For evaluating control of yellow fever mosquito (Aedes aegypti) the test unit consisted of 96-well-microtiter plates containing 200 μl of tap water per well and 5-15 freshly hatched A. aegypti larvae.
The active compounds were formulated using a solution containing 75% (v/v) water and 25% (v/v) DMSO. Different concentrations of formulated compounds or mixtures were sprayed onto the insect diet at 2.5 μl, using a custom-built micro atomizer, at two replications.
After application, microtiter plates were incubated at 28±1° C., 80±5% RH for 2 days. Larval mortality was then visually assessed.

In data set [6] the test system is Orchid thrips; Dichromothrips corbetti. Nature of the data set: B.6 Orchid thrips, floral-immersion technique. As to conditions: 300 ppm; 72 hours after treatment. On the procedure: B.6 ANAPCO (Orchid thrips; Dichromothrips corbetti)
Dichromothrips corbetti adults used for bioassay are obtained from a colony maintained continuously under laboratory conditions. For testing purposes, the test compound is diluted in a 1:1 mixture of acetone:water (vol:vol), plus Kinetic at a rate of 0.01% v/v.
Thrips potency of each compound is evaluated by using a floral-immersion technique. Each orchid petal is dipped into treatment solution and allowed to dry in Petri dishes. Treated petals are placed into individual re-sealable plastic along with about 20 adult thrips. All test arenas are held under dark condition and a temperature of about 28° C. for duration of the assay. The percent mortality is recorded 72 hours after treatment.

In data set [7] the test system is Black Bean Aphid; Aphis craccivora. Nature of the data set: B.7 Black bean aphid, sprayed potted bean plants. Conditions: 300 ppm; after 72 hours. On the procedure:
B.7 APHICR (Black Bean Aphid; Aphis craccivora)
The active compound is dissolved at the desired concentration in a mixture of 1:1 (vol:vol) distilled water:acetone. Surfactant (Kinetic) is added at a rate of 0.01% (vol/vol). The test solution is prepared at the day of use.
Potted (Kord traditional square pots Size 3″ and 2.5″ in depth) bush beans are cleaned with the apical leaves removed using pointed forceps, leaving only the cotyledon leaves. Plants are inoculated with about 30 mixed-stage aphid colony 24 hours before spraying. Potted bean plants are sprayed with the test solutions using a DeVilbiss hand atomizer (20-30 psi). Treated plants are allowed to air-dry in the laboratory for about an hour before placing them inside the holding room maintained at 27° C., 50% RH and […] conditions. Stem of the treated bean plants are inserted in the slit of cut circle filter paper to catch the falling dead aphids. Assessment of population reduction (% mortality) is done after 72 hours.

What is called mortality is the share of the test organisms that died. Turning to `CC(NC(=O)c1cc(Br)cc(C(F)(F)F)c1)c1nccnc1-c1ncn(CC(F)(F)F)n1` (centres unmarked) [Compound I1-1, 3-bromo-N-[1-[3-[1-(2,2,2-trifluoroethyl)-1,2,4-triazol-3-yl]pyrazin-2-yl]ethyl]-5-(trifluoromethyl)benzamide], the mortality at 300 ppm in data set [1] is no less than 75%. Moreover, the mortality at 2500 ppm in data set [2], in data set [3], in data set [4] and in data set [5] was no less than 75% each time.
For the compound `COc1ccc(Cn2cnc(-c3nccnc3C(C)NC(=O)c3cc(Cl)cc(C(F)(F)F)c3)n2)cc1` (centres unmarked) [Compound I1-4, 3-chloro-N-[1-[3-[1-[(4-methoxyphenyl)methyl]-1,2,4-triazol-3-yl]pyrazin-2-yl]ethyl]-5-(trifluoromethyl)benzamide], the mortality at 300 ppm in data set [1] is no less than 75%. In addition, the mortality at 2500 ppm in data set [2] is no less than 75%.
As to `CC(c1nccnc1-c1ncn(C(C)C)n1)N(C)C(=O)c1cc(Cl)cc(S(C)(=O)=O)c1` (centres unmarked) [Compound I1-5, 3-chloro-N-[1-[3-(1-isopropyl-1,2,4-triazol-3-yl)pyrazin-2-yl]ethyl]-N-methyl-5-methylsulfonyl-benzamide], in data set [1], the mortality at 300 ppm is no less than 75%. Further, the mortality at 2500 ppm in data set [2], in data set [4] and in data set [5] was no less than 75% throughout.
On to `CC(NC(=O)c1cc(Cl)cc(S(C)(=O)=O)c1)c1nccnc1-c1ncn(C(C)C)n1` (centres unmarked) [Compound I1-7, 3-chloro-N-[1-[3-(1-isopropyl-1,2,4-triazol-3-yl)pyrazin-2-yl]ethyl]-5-methylsulfonyl-benzamide], for which, in data set [1], the mortality at 300 ppm is no less than 75%. In addition, the mortality at 2500 ppm in data set [2], in data set [4] and in data set [5] was no less than 75% in each case.
Turning to `CC(NC(=O)c1cc(Cl)cc(C(F)(F)F)c1)c1nccnc1-c1ncn(CC=C(Cl)Cl)n1` (centres unmarked) [Compound I1-11, 3-chloro-N-[1-[3-[1-(3,3-dichloroallyl)-1,2,4-triazol-3-yl]pyrazin-2-yl]ethyl]-5-(trifluoromethyl)benzamide], the mortality at 2500 ppm in data set [2], in data set [3] and in data set [5] was no less than 75% in each case.
Take `CC(NC(=O)c1cc(C(F)(F)F)cc(C(F)(F)F)c1)c1nccnc1-c1ncn(C)n1` (centres unmarked) [Compound I1-12]: the “% mortality in comparison to untreated controls, B.6” value (from here on “% mortality in comparison … B.6”) in data set [6] stood at 100%. Also, the mortality at 300 ppm in data set [1] was no less than 75%. In addition, the mortality at 2500 ppm in data set [2], in data set [3], in data set [4] and in data set [5] was no less than 75% each time. Besides, the “% mortality in comparison to untreated controls, B.7” value (“% mortality in comparison … B.7” below) in data set [7] came out at 100%. Also, the mortality at 9.9 ppm in data set [4] worked out at 100%.
As for `CC(NC(=O)c1cc(C(F)(F)F)cc(C(F)(F)F)c1)c1nccnc1-c1ncn(CC(F)(F)F)n1` (centres unmarked) [Compound I1-13], in data set [6], the “% mortality in comparison … B.6” value turned out to be 100%. Besides, the mortality at 300 ppm in data set [1] was no less than 75%. Further, the mortality at 2500 ppm in data set [2], in data set [3], in data set [4] and in data set [5] was no less than 75% each time. Further, the mortality at 7.9 ppm in data set [2] and in data set [4] was 100% each time.
As for `CC(NC(=O)c1cc(Cl)cc(C(F)(F)F)c1)c1nccnc1-c1ncn(CC2CC2(Cl)Cl)n1` (centres unmarked) [Compound I1-14, 3-chloro-N-[1-[3-[1-[(2,2-dichlorocyclopropyl)methyl]-1,2,4-triazol-3-yl]pyrazin-2-yl]ethyl]-5-(trifluoromethyl)benzamide], the mortality at 300 ppm in data set [1] was no less than 75%. In addition, the mortality at 2500 ppm in data set [2], in data set [3], in data set [4] and in data set [5] was no less than 75% each time.
Turning to `CC(NC(=O)c1cc(Cl)nc(Cl)c1)c1nccnc1-c1ncn(-c2ccccc2)n1` (centres unmarked) [Compound I2-1, 2,6-dichloro-N-[1-[3-(1-phenyl-1,2,4-triazol-3-yl)pyrazin-2-yl]ethyl]pyridine-4-carboxamide], the mortality at 2500 ppm in data set [2], in data set [4] and in data set [5] was no less than 75% each time.
As for `Cc1cnn(-c2nccnc2C(C)NC(=O)c2cc(C(F)(F)F)cc(C(F)(F)F)c2)n1` (centres unmarked) [WO 2021/037614 P1, reference compound], the “% mortality in comparison … B.6” value in data set [6] is given as 0%. For the same compound, in data set [7], the “% mortality in comparison … B.7” value is on record as 0%. Besides, the mortality at 9.9 ppm in data set [4] was 0%.
For `CC(NC(=O)c1cc(C(F)(F)F)cc(C(F)(F)F)c1)c1nccnc1-n1cncn1` (centres unmarked) [WO 2021/037614 P46, reference compound], in data set [6], the “% mortality in comparison … B.6” value was 0%. The mortality at 7.9 ppm in data set [2] stood at 50%; in data set [4] it was 0%. Further, in data set [7], the “% mortality in comparison … B.7” value was 50%. In addition, the mortality at 9.9 ppm in data set [4] was 25%.
